Here are results for 13 compounds from US20110172099A1, “Imidazole and Triazole Compounds, Their Use and Agents Containing the Same” (BASF SE, priority 2008, published 2011).

The structures appear in SMILES notation.

In the first assay the test system is Phakopsora pachyrhizi. Description: Example G2: curative activity against soybean rust caused by Phakopsora pachyrhizi (greenhouse). As to conditions: 600 ppm; soybean seedlings, curative spray two days after inoculation, assessed after a further 10 days; untreated plants 100% infected. It counts as in vivo.
`CC(Cc1cc(F)ccc1F)CC(C(O)C(C)(C)C)n1cncn1` (mixture of isomers) [I.A26b] came in with an infection of 0%.

As to `CC(Cc1ccc(F)cc1F)CC(C(O)C(C)(C)C)n1cncn1` (mixture of isomers) [I.A30a], the infection is reported as 0%.

`CC(CCC(C(O)C(C)(C)C)n1cncn1)c1ccccc1F` (mixture of isomers) [I.A36b] returned an infection of 0%.

The compound `CC(Cc1cccc(Cl)c1)CC(C(O)C(C)(C)C)n1cncn1` (mixture of isomers) [I.A39a] yielded an infection of 0%.

Consider `CC(C)(C)C(O)C(CCCc1cc(F)ccc1F)n1cncn1` (racemic) [I.A24b], for which the infection is 0%.

`CC(C)(C)C(O)C(CCCc1cccc(F)c1F)n1cncn1` (racemic) [I.A25b] yielded an infection of 0%.

`CC(Cc1ccc(F)cc1F)CC(C(O)C(C)(C)C)n1cncn1` (stereo not shown) [I.A30b, 7-(2,4-difluorophenyl)-2,2,6-trimethyl-4-[1,2,4]triazol-1-ylheptan-3-ol] registered an infection of 0%.

Another assay deals with Botrytis cinerea. Put plainly: C2: gray mold on bell pepper leaves caused by Botrytis cinerea, 1 day protective application (comparison with the prior art). As to conditions: after 5 days, untreated control 100. The assay is classed as in vivo. The procedure:
The active compounds were prepared separately as a stock solution with 25 mg of active compound, which was made up to 10 ml with a mixture of acetone and/or DMSO and the emulsifier Uniperol® EL (wetting agent with emulsifying and dispersing action based on ethoxylated alkylphenols) in the volume ratio solvent/emulsifier of from 99 to 1. Subsequently, it was made up to 100 ml with water. This stock solution was diluted with the described solvent/emulsifier/water mixture to the active compound concentration indicated below. Alternatively, the active compounds were used as a commercially available ready-to-use solution and diluted with water to the active compound concentration indicated. Bell pepper seedlings were, after 2-3 leaves were well developed, sprayed to run off point with an aqueous suspension having the active compound concentration stated below. The next day, the treated plants were inoculated with a spore suspension of Botrytis cinerea in a 2% biomalt solution. The test plants were then placed in a dark acclimatized chamber at 22 to 24° C. and high atmospheric humidity. After 5 days, the extent of the fungal infection on the leaves could be determined visually in %.
Take `CC(C)(C)C(O)C(CCCc1cccc(Cl)c1)n1cncn1` (stereo not shown): the “Infection (%) at 600 ppm C2” value is given as 15%.

Consider `CC(C)(C)C(O)C(CCCc1ccccc1Cl)n1cncn1` (stereo not shown) [drawing 19], for which the “Infection (%) at 600 ppm C2” value was determined as 7%.

As for `CC(C)(C)C(O)C(CCCc1ccccc1Cl)n1cncn1` (stereo not shown) [drawing 21], the “Infection (%) at 600 ppm C2” value is recorded as 10%.

Regarding `CC(C)(C)C(O)C(CCCc1ccc(Cl)cc1)n1cncn1` (stereo not shown) [reference compound], the “Infection (%) at 600 ppm C2” value was determined as 70%.

The subject of a further assay is Phytophthora infestans.
Experiment: not given
The assay is classed as in vivo. As to conditions: tomato, protective, after 6 days, untreated control 90.
As to `CC(C)(C)C(O)C(CCCc1ccc(Cl)cc1Cl)n1cncn1` (stereo not shown), the “Infection (%) at 600 ppm C1” value is 7%.

Regarding `CC(Cc1ccc(Cl)cc1Cl)CC(C(O)C(C)(C)C)n1cncn1` (stereo not shown) [reference compound], the “Infection (%) at 600 ppm C1” value was found to be 90%.
